In PubChem BioAssay AID220 (DTP/NCI, 2004) one finds T/C data, which are given here for eleven compounds.

Values joined by “and” are separate entries in the source; they are usually repeats but may differ in a detail not shown here. Identical values can stand only once. Records with an inconclusive call do not appear.

The assay relates to CD8F1 mice, subcutaneous mammary adenocarcinoma, T/C%. The experiment in a line: NCI In Vivo Anticancer Drug Screen. Data for tumor model Mammary Adenocarcinoma CD8F1 (subcutaneous) in CD8F1. The following applies: higher = larger tumour. In short, it runs like this:
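Tumor-bearing mice, transplantable model; readout survival or tumor size; value = treated (T) / vehicle control (C).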

Setting [1] is: endpoint: median tumor weight change, dose: 125.0 mg/kg/injection, schedule: Q01DX001 (ip), vehicle: saline with Tween-80.
The mark [2] stands for this setting: endpoint: median tumor weight (est.), dose: 12.5 mg/kg/injection, schedule: Q07DX005 (ip), vehicle: saline with Tween-80.

`C[Si](C)(C)OSc1ccccc1[N+](=O)[O-]`: the T/C is 158 % of control (endpoint: median tumor weight change, dose: 125.0 mg/kg/injection, schedule: Q01DX001 (ip), vehicle: Klucel (hydroxypropylcellulose) (HPC)); 120 % of control (endpoint: median tumor weight change, dose: 250.0 mg/kg/injection, schedule: Q01DX001 (ip), vehicle: Klucel (hydroxypropylcellulose) (HPC)); 93 % of control (endpoint: median tumor weight change, dose: 500.0 mg/kg/injection, schedule: Q01DX001 (ip), vehicle: Klucel (hydroxypropylcellulose) (HPC)); 120 % of control (endpoint: median tumor weight change, dose: 1000.0 mg/kg/injection, schedule: Q01DX001 (ip), vehicle: Klucel (hydroxypropylcellulose) (HPC)); 97 % of control (endpoint: median tumor weight change, dose: 2000.0 mg/kg/injection, schedule: Q01DX001 (ip), vehicle: Klucel (hydroxypropylcellulose) (HPC)).

Take `C/C=C(\Cl)C1=CC(=O)C23CC2C2(C)COC1(O)C3(O)O2` (stereo not given): the T/C (endpoint: median tumor weight (est.), dose: 6.0 mg/kg/injection, schedule: Q07DX005 (ip), vehicle: saline with Tween-80) is 90 % of control.

Regarding `COc1ccc(C(=O)/C(Br)=C/C(=O)O)cc1`, the T/C by setting is: (endpoint: mean tumor weight, dose: 8.0 mg/kg/injection, schedule: Q07DX004 (ip), vehicle: saline) 69 % of control; (endpoint: mean tumor weight, dose: 12.5 mg/kg/injection, schedule: Q01DX009 (ip), vehicle: saline) 206 % of control and 122 % of control; (endpoint: mean tumor weight, dose: 16.0 mg/kg/injection, schedule: Q07DX004 (ip), vehicle: saline) 171 % of control; (endpoint: mean tumor weight, dose: 25.0 mg/kg/injection, schedule: Q01DX009 (ip), vehicle: saline) 241 % of control and 113 % of control; (endpoint: mean tumor weight, dose: 25.0 mg/kg/injection, schedule: Q07DX006 (ip), vehicle: saline) 190 % of control; (endpoint: mean tumor weight, dose: 32.0 mg/kg/injection, schedule: Q07DX004 (ip), vehicle: saline) 163 % of control. The T/C is, setting by setting: (endpoint: mean tumor weight, dose: 50.0 mg/kg/injection, schedule: Q01DX009 (ip), vehicle: saline) 156 % of control and 209 % of control; (endpoint: mean tumor weight, dose: 50.0 mg/kg/injection, schedule: Q07DX006 (ip), vehicle: saline) 86 % of control; (endpoint: mean tumor weight, dose: 64.0 mg/kg/injection, schedule: Q07DX004 (ip), vehicle: saline) 89 % of control; (endpoint: median tumor weight (est.), dose: 4.0 mg/kg/injection, schedule: Q01DX005 (ip), vehicle: saline) 159 % of control; (endpoint: median tumor weight (est.), dose: 8.0 mg/kg/injection, schedule: Q04DX005 (ip), vehicle: saline) 114 % of control; (endpoint: median tumor weight (est.), dose: 8.0 mg/kg/injection, schedule: Q07DX005 (ip), vehicle: saline) 120 % of control. The T/C (endpoint: median tumor weight (est.), dose: 16.0 mg/kg/injection, schedule: Q01DX005 (ip), vehicle: saline) is 100 % of control; the T/C (endpoint: median tumor weight (est.), dose: 16.0 mg/kg/injection, schedule: Q07DX005 (ip), vehicle: saline) is 120 % of control; the T/C (endpoint: median tumor weight (est.), dose: 32.0 mg/kg/injection, schedule: Q01DX005 (ip), vehicle: saline) was 116 % of control; the T/C (endpoint: median tumor weight (est.), dose: 32.0 mg/kg/injection, schedule: Q07DX005 (ip), vehicle: saline) is 50 % of control; the T/C (endpoint: median tumor weight (est.), dose: 64.0 mg/kg/injection, schedule: Q01DX005 (ip), vehicle: saline) was 56 % of control; the T/C (endpoint: median tumor weight (est.), dose: 64.0 mg/kg/injection, schedule: Q04DX005 (ip), vehicle: saline) was 219 % of control. Further, the T/C (endpoint: median tumor weight (est.), dose: 64.0 mg/kg/injection, schedule: Q07DX005 (ip), vehicle: saline) was 105 % of control.

`NC(C(=O)O)c1ccc(CBr)cc1` (stereo not given): the T/C under setting [1] was 106 % of control.

As for `Cc1ccc2c(c1)C(=O)N(CC[P+](c1ccccc1)(c1ccccc1)c1ccccc1)C2=O`, the T/C reads like this: (endpoint: mean tumor weight, dose: 1.56 mg/kg/injection, schedule: Q07DX006 (ip), vehicle: water) 90 % of control; (endpoint: mean tumor weight, dose: 6.25 mg/kg/injection, schedule: Q07DX006 (ip), vehicle: water) 96 % of control; (endpoint: median tumor weight (est.), dose: 3.12 mg/kg/injection, schedule: Q07DX005 (ip), vehicle: water) 56 % of control; (endpoint: median tumor weight (est.), dose: 6.25 mg/kg/injection, schedule: Q07DX005 (ip), vehicle: water) 111 % of control.

For `C=CC(=O)N1CN(C(=O)C=C)CN(C(=O)C=C)C1`, the T/C is 89 % of control (endpoint: median tumor weight (est.), dose: 3.12 mg/kg/injection, schedule: Q07DX005 (ip), vehicle: saline with Tween-80); 111 % of control (endpoint: median tumor weight (est.), dose: 6.25 mg/kg/injection, schedule: Q07DX005 (ip), vehicle: saline with Tween-80); 31 % of control under setting [2].

`COC1/C=C/O[C@@]2(C)Oc3c(C)c(O)c4c(O)c(cc(O)c4c3C2=O)NC(=O)/C(C)=C\C=C\[C@H](C)C(O)[C@@H](C)[C@@H](O)[C@@H](C)[C@H](OC(C)=O)[C@@H]1C` (stereo not given in full): the T/C is 87 % of control (endpoint: median tumor weight change, dose: 31.25 mg/kg/injection, schedule: Q01DX001 (ip), vehicle: saline with Tween-80); 82 % of control (endpoint: median tumor weight change, dose: 62.5 mg/kg/injection, schedule: Q01DX001 (ip), vehicle: saline with Tween-80); 98 % of control under setting [1]; 153 % of control (endpoint: median tumor weight change, dose: 250.0 mg/kg/injection, schedule: Q01DX001 (ip), vehicle: saline with Tween-80); 83 % of control (endpoint: median tumor weight change, dose: 500.0 mg/kg/injection, schedule: Q01DX001 (ip), vehicle: saline with Tween-80).

For the compound `O=C1N[C@H]2[C@H](O)[C@H](O)[C@@H](O)[C@H](O)[C@@H]2c2cc3c(c(O)c21)OCO3`, the T/C is 110 % of control (endpoint: median tumor weight change, dose: 1.25 mg/kg/injection, schedule: Q01DX005 (ip), vehicle: saline + alcohol); 66 % of control (endpoint: median tumor weight change, dose: 2.5 mg/kg/injection, schedule: Q01DX005 (ip), vehicle: saline + alcohol); 48 % of control (endpoint: median tumor weight change, dose: 5.0 mg/kg/injection, schedule: Q01DX005 (ip), vehicle: saline + alcohol).

Regarding `Cn1c2nc(=O)n(-c3ccccc3)c(=O)c-2nc2c1CCCC2`, the T/C was 90 % of control under setting [2]; 108 % of control (endpoint: median tumor weight (est.), dose: 25.0 mg/kg/injection, schedule: Q07DX005 (ip), vehicle: saline with Tween-80); 119 % of control (endpoint: median tumor weight (est.), dose: 50.0 mg/kg/injection, schedule: Q07DX005 (ip), vehicle: saline with Tween-80); 100 % of control (endpoint: median tumor weight (est.), dose: 100.0 mg/kg/injection, schedule: Q07DX005 (ip), vehicle: saline with Tween-80).

For the compound `COC1=C(N)C(=O)c2nc(-c3nc(C(=O)O)c(C)c(-c4ccc(OC)c(OC)c4O)c3N)ccc2C1=O`, the T/C by setting is: (endpoint: median tumor weight (est.), dose: 0.1 mg/kg/injection, schedule: Q07DX005 (ip), vehicle: Klucel (hydroxypropylcellulose) (HPC)) 69 % of control; (endpoint: median tumor weight (est.), dose: 0.1 mg/kg/injection, schedule: Q07DX005 (ip), vehicle: saline) 16 % of control and 34 % of control; (endpoint: median tumor weight (est.), dose: 0.12 mg/kg/injection, schedule: Q07DX005 (ip), vehicle: Klucel (hydroxypropylcellulose) (HPC)) 10 % of control; (endpoint: median tumor weight (est.), dose: 0.2 mg/kg/injection, schedule: Q07DX005 (ip), vehicle: Klucel (hydroxypropylcellulose) (HPC)) 12 % of control; (endpoint: median tumor weight (est.), dose: 0.2 mg/kg/injection, schedule: Q07DX005 (ip), vehicle: saline) 11 % of control and 20 % of control; (endpoint: median tumor weight (est.), dose: 0.4 mg/kg/injection, schedule: Q07DX005 (ip), vehicle: Klucel (hydroxypropylcellulose) (HPC)) 7 % of control. The T/C is 3 % of control (endpoint: median tumor weight (est.), dose: 0.4 mg/kg/injection, schedule: Q07DX005 (ip), vehicle: saline); 32 % of control and 41 % of control (endpoint: median tumor weight change, dose: 0.5 mg/kg/injection, schedule: Q01DX001 (ip), vehicle: Klucel (hydroxypropylcellulose) (HPC)).

For `[N-]=[N+]=C1N=CN=C1c1ncn[nH]1`, the T/C (endpoint: median tumor weight (est.), dose: 3.12 mg/kg/injection, schedule: Q07DX005 (ip), vehicle: carboxymethylcellulose (CMC)) was 91 % of control and the T/C (endpoint: median tumor weight (est.), dose: 6.25 mg/kg/injection, schedule: Q07DX005 (ip), vehicle: carboxymethylcellulose (CMC)) is 95 % of control.
